The term IC50 denotes the concentration at which inhibition is half-maximal. Higher therefore signals a need for much substance.

The assay is described as follows: Mitogenic stimulation or antagonism of 30 nM quinpirole-stimulated mitogenesis in CHO cells expressing human dopamine D3 receptor.

As to `O=C(NC/C=C/CN1CCN(c2cccc(Cl)c2Cl)CC1)c1ccc2c(c1)Cc1ccccc1-2` [N-(4-(4-(2,3-dichlorophenyl)piperazin-1-yl)but-2-enyl)-9H-fluorene-2-carboxamide], the IC50 is 173 nM.

For the compound `O=C(NC/C=C/CN1CCN(c2cccc(Cl)c2Cl)CC1)c1ccc(O)cc1` [N-{4-[4-(2,3-Dichloro-phenyl)-piperazin-1-yl]-but-2-enyl}-4-hydroxy-benzamide], the IC50 is 1 nM.

`COc1ccc(C(=O)NC/C=C/CN2CCN(c3cccc(Cl)c3Cl)CC2)cc1` [N-{4-[4-(2,3-Dichloro-phenyl)-piperazin-1-yl]-but-2-enyl}-4-methoxy-benzamide] had an IC50 of 4.79 nM. This IC50 is about 4.8-fold higher than that of the compound before.

`O=C(NC/C=C/CN1CCN(c2cccc(Cl)c2Cl)CC1)c1ccc([N+](=O)[O-])cc1` [N-{(E)-4-[4-(2,3-Dichloro-phenyl)-piperazin-1-yl]-but-2-enyl}-4-nitro-benzamide] registered an IC50 of 2.2 nM.

For the compound `O=C(NC/C=C/CN1CCN(c2cccc(Cl)c2Cl)CC1)c1ccc(I)cc1` [N-{4-[4-(2,3-Dichloro-phenyl)-piperazin-1-yl]-but-2-enyl}-4-iodo-benzamide], the IC50 was found to be 24.1 nM. Compared with the last compound, the IC50 is about 11-fold higher.

In turn, `O=C(NCCCCN1CCN(c2cccc(Cl)c2Cl)CC1)c1ccc(-c2ccccn2)cc1` [N-{4-[4-(2,3-Dichloro-phenyl)-piperazin-1-yl]-butyl}-4-pyridin-2-yl-benzamide] registered an IC50 of 6.31 nM.
